Source: US10517889B2, “Modulators of SMAD7 expression” (Ionis Pharmaceuticals, Inc., priority 2017, dated 2019)
Strand notation (5' to 3'): a small letter for the sugar, then the base; units joined by * are phosphorothioate-linked, units joined directly phosphodiester-linked; [ ] holds rarer units or linkages, { } end groups; capitals alone tell only the bases. k = constrained ethyl (cEt); [5mC] = 5-methylcytosine; d = 2'-deoxy (DNA)

What follows are substances tested on human SMAD7 mRNA (assay: Antisense inhibition of human SMAD7 mRNA expression in Hep3B cells by 3-10-3 cEt gapmers, 10,000 nM, electroporation (Example 2)). Settings: Hep3B cells, 10,000 nM antisense oligonucleotide, electroporation, approximately 24 hours, RT-PCR primer probe set RTS5062, relative to untreated control cells.
Format: cell-based
How it was run: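 SMAD7 mRNA was measured by real-time PCR (RTS5062) with RiboGreen total-RNA normalization, about 24 h after 10,000 nM gapmer was delivered by electroporation into Hep3B cells at 20,000 per well. Gapmers were 16-mer 3-10-3 cEt, fully phosphorothioate; values are % inhibition versus untreated controls.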

Substance	% Inhibition
799852 (k[5mC]*kA*kA*dG*dT*dG*dT*d[5mC]*d[5mC]*dA*dT*d[5mC]*dA*kA*kG*k[5mC]; antisense) [compound 799852]	11%
798906 (kG*k[5mC]*kT*dA*d[5mC]*d[5mC]*dG*dG*d[5mC]*dT*dG*dT*dT*kG*kA*kA; antisense) [compound 798906]	0%
799979 (kA*kA*k[5mC]*dG*dG*dT*dT*dG*d[5mC]*d[5mC]*dT*d[5mC]*dA*kT*k[5mC]*k[5mC]; antisense) [compound 799979]	38%
798821 (kA*kG*k[5mC]*d[5mC]*dT*d[5mC]*d[5mC]*d[5mC]*d[5mC]*dA*d[5mC]*dT*d[5mC]*kT*k[5mC]*kG; antisense) [compound 798821]	32%

Same assay, conditions: Hep3B cells, electroporation with 10,000 nM antisense oligonucleotide, approximately 24 hours, RTS5062, percent inhibition of SMAD7 mRNA relative to untreated control cells

Substance	% Inhibition
799310 (antisense kT*kA*kA*dG*d[5mC]*dA*d[5mC]*dG*d[5mC]*dT*d[5mC]*dT*dA*kA*kA*k[5mC]) [compound 799310]	18%
799706 (antisense k[5mC]*kT*kT*dG*dT*dG*dG*dT*dA*dA*dA*dA*dT*kA*k[5mC]*kA) [compound 799706]	47%
799570 (kA*kA*kA*dA*dG*dA*dT*dG*d[5mC]*dA*dG*dT*dT*k[5mC]*kA*k[5mC]; antisense) [compound 799570]	39%

Same assay, conditions: Hep3B cells, electroporation with 10,000 nM antisense oligonucleotide, approximately 24 hours, SMAD7 mRNA by RT-PCR (RTS5062), relative to untreated control cells

Substance	% Inhibition
830177 (antisense k[5mC]*kA*kG*d[5mC]*d[5mC]*d[5mC]*dT*dT*dT*d[5mC]*dA*d[5mC]*d[5mC]*k[5mC]*k[5mC]*kT) [compound 830177]	40%
799941 (antisense kT*kT*kT*dA*d[5mC]*dT*dA*d[5mC]*d[5mC]*dT*dT*d[5mC]*d[5mC]*kA*kG*kA) [compound 799941]	44%
800108 (antisense kG*kG*kA*dA*dT*d[5mC]*dT*dA*dG*dA*dA*dA*dA*k[5mC]*kA*k[5mC]) [compound 800108]	12%
830019 (antisense kA*kG*kG*d[5mC]*d[5mC]*d[5mC]*dA*dA*d[5mC]*dA*dG*d[5mC]*d[5mC]*kA*kA*kA) [compound 830019]	16%
799407 (antisense kT*kG*k[5mC]*dA*dG*dG*dA*dA*dA*d[5mC]*d[5mC]*d[5mC]*dA*kA*kG*kG) [compound 799407]	33%
830090 (kA*kT*kA*d[5mC]*dA*d[5mC]*dA*dA*dG*dA*d[5mC]*d[5mC]*d[5mC]*kT*kG*kT; antisense) [compound 830090]	10%
798714 (antisense kG*kG*k[5mC]*d[5mC]*dG*d[5mC]*d[5mC]*dG*d[5mC]*d[5mC]*dA*d[5mC]*d[5mC]*kG*kG*k[5mC]) [compound 798714]	0%
830093 (k[5mC]*kT*k[5mC]*dA*dT*dT*dA*dG*dT*d[5mC]*d[5mC]*d[5mC]*dA*kT*kG*kA; antisense) [compound 830093]	5%
830205 (kG*kA*k[5mC]*dT*d[5mC]*dA*dT*d[5mC]*dA*dG*dG*d[5mC]*dA*kT*kT*k[5mC]; antisense) [compound 830205]	26%
799924 (antisense k[5mC]*kA*kA*dG*d[5mC]*d[5mC]*dT*dA*d[5mC]*dA*dT*dA*dT*kT*kT*k[5mC]) [compound 799924]	22%
798828 (kA*kT*k[5mC]*d[5mC]*dA*dG*dA*dG*dA*dG*dG*dG*d[5mC]*kT*k[5mC]*k[5mC]; antisense) [compound 798828]	18%
830179 (antisense kT*kT*kT*dA*d[5mC]*dT*dG*d[5mC]*dA*dT*dT*d[5mC]*d[5mC]*kG*kG*k[5mC]) [compound 830179]	51%
830109 (kA*kT*kT*d[5mC]*dA*dT*dT*dA*dA*dG*d[5mC]*d[5mC]*d[5mC]*kG*k[5mC]*kT; antisense) [compound 830109]	44%
799966 (antisense kG*kT*kG*dG*dA*dA*dG*dG*d[5mC]*dT*dG*dA*d[5mC]*k[5mC]*kT*kG) [compound 799966]	35%
799490 (antisense kT*kT*kA*dA*dA*dT*dG*dG*dT*dG*dT*dA*dT*kA*k[5mC]*k[5mC]) [compound 799490]	0%
799968 (k[5mC]*kT*kG*d[5mC]*dG*dA*dG*dT*dT*dA*dA*dT*d[5mC]*kA*kG*kA; antisense) [compound 799968]	27%
800044 (k[5mC]*k[5mC]*kT*dG*dA*dG*dA*dT*d[5mC]*dG*dA*dG*dG*kT*kG*k[5mC]; antisense) [compound 800044]	18%

Same assay, conditions: Hep3B cells, electroporation with 10,000 nM antisense oligonucleotide, approximately 24 hours, primer probe set RTS5062, relative to untreated control cells

Substance	% inhibition of SMAD7 mRNA expression	% Inhibition
799266 (antisense kG*kG*k[5mC]*d[5mC]*dT*dT*d[5mC]*d[5mC]*dA*dT*d[5mC]*d[5mC]*dA*kA*k[5mC]*kT) [compound 799266]	37%	–
799182 (antisense kG*kT*kA*dG*dT*dT*dA*dG*dA*dA*dA*dA*dA*kT*kA*kG) [compound 799182]	–	20%
799062 (antisense k[5mC]*kT*kG*dG*dT*dT*d[5mC]*dG*dG*d[5mC]*d[5mC]*dA*d[5mC]*kT*kA*kG) [compound 799062]	–	45%
799405 (antisense k[5mC]*kT*kG*dG*dG*dA*dA*d[5mC]*dA*dT*dT*dT*dA*k[5mC]*k[5mC]*k[5mC]) [compound 799405]	28%	–
799227 (kG*kA*kA*dA*dA*dA*dA*dA*d[5mC]*dA*d[5mC]*d[5mC]*dA*kA*kT*k[5mC]; antisense) [compound 799227]	–	2%
798712 (antisense kG*k[5mC]*k[5mC]*dA*d[5mC]*d[5mC]*dG*dG*d[5mC]*d[5mC]*d[5mC]*d[5mC]*dA*kT*kG*k[5mC]) [compound 798712]	6%	–
799221 (kT*kT*kT*dA*dA*dT*dT*dT*dG*dG*d[5mC]*dA*dT*kT*kT*kG; antisense) [compound 799221]	–	0%
790617 (k[5mC]*kT*kA*d[5mC]*dA*dA*dT*dG*d[5mC]*dT*dA*dA*dA*kT*kT*kT; antisense) [compound 790617]	–	0%
799138 (antisense k[5mC]*k[5mC]*kA*dA*dA*dT*d[5mC]*d[5mC]*dT*dT*d[5mC]*dT*dT*kG*kG*kA) [compound 799138]	–	7%
799416 (antisense kA*kA*kG*dA*d[5mC]*d[5mC]*dT*dG*dG*dG*dT*d[5mC]*dA*kG*k[5mC]*kG) [compound 799416]	41%	–
799087 (antisense k[5mC]*k[5mC]*k[5mC]*d[5mC]*dG*dG*d[5mC]*dA*dG*d[5mC]*d[5mC]*d[5mC]*dT*kT*kG*kG) [compound 799087]	69%	–
798809 (kT*kT*kG*dG*dG*dA*dA*dT*d[5mC]*dT*dG*dA*dA*kA*kG*k[5mC]; antisense) [compound 798809]	2%	–
799059 (antisense kA*k[5mC]*kT*dA*dG*d[5mC]*dA*dG*dG*d[5mC]*dT*d[5mC]*dG*k[5mC]*kT*kG) [compound 799059]	–	18%
798703 (antisense kG*kT*k[5mC]*d[5mC]*dG*dT*d[5mC]*dG*d[5mC]*d[5mC]*d[5mC]*d[5mC]*dT*kT*k[5mC]*kT) [compound 798703]	68%	–

Same assay, conditions: Hep3B cells, electroporation, 10,000 nM antisense oligonucleotide, approximately 24 hours, RTS5062, relative to untreated control cells

Substance	% inhibition of SMAD7 mRNA expression
799655 (antisense kT*kG*k[5mC]*dA*dG*d[5mC]*dT*dG*dA*dA*dT*dA*dA*k[5mC]*k[5mC]*kT) [compound 799655]	47%
772813 (kA*kA*kG*dG*dG*d[5mC]*dG*d[5mC]*dA*dG*dG*dA*dA*kA*kG*kG; antisense) [compound 772813]	43%
799656 (antisense k[5mC]*kT*kA*dA*d[5mC]*dT*dG*dG*dG*d[5mC]*dA*dG*dG*kT*k[5mC]*k[5mC]) [compound 799656]	60%
799834 (antisense kG*kT*kG*dG*dT*dA*dT*dA*dG*d[5mC]*dA*dT*dG*k[5mC]*kA*kT) [compound 799834]	0%
799697 (antisense kA*kA*kT*dA*dG*dT*dT*dT*dT*d[5mC]*dT*d[5mC]*dT*k[5mC]*kA*kA) [compound 799697]	59%

Same assay, conditions: SMAD7 mRNA, Hep3B cells, 10,000 nM antisense oligonucleotide, electroporation, approximately 24 hours, primer probe set RTS5062, relative to untreated control cells

Substance	% Inhibition
772808 (k[5mC]*k[5mC]*k[5mC]*d[5mC]*dA*dT*dT*d[5mC]*dA*dT*dT*dA*dA*kG*k[5mC]*k[5mC]; antisense) [compound 772808]	34%
829758 (antisense k[5mC]*kA*k[5mC]*d[5mC]*dG*dG*d[5mC]*d[5mC]*d[5mC]*d[5mC]*dA*dT*dG*k[5mC]*kG*k[5mC]) [compound 829758]	24%
790618 (kA*kG*k[5mC]*dA*d[5mC]*dT*dA*d[5mC]*dA*dA*dT*dG*d[5mC]*kT*kA*kA; antisense) [compound 790618]	24%
800769 (antisense kG*k[5mC]*kA*dG*dG*d[5mC]*dG*dA*d[5mC]*dA*dG*d[5mC]*dA*kG*k[5mC]*kA) [compound 800769]	49%
772687 (kA*k[5mC]*k[5mC]*dT*dT*dT*dG*dT*dA*dG*dT*dT*dA*kG*kA*kA; antisense) [compound 772687]	46%
829752 (antisense k[5mC]*k[5mC]*kG*d[5mC]*dA*dG*d[5mC]*dT*d[5mC]*dG*d[5mC]*d[5mC]*dT*k[5mC]*k[5mC]*kT) [compound 829752]	27%
829793 (kT*k[5mC]*kT*dT*d[5mC]*d[5mC]*d[5mC]*dG*dT*dA*dA*dG*dA*kT*kT*k[5mC]; antisense) [compound 829793]	41%
